Source: patent US20180092840A1, “ULTRASOUND-ENHANCED DRUG DELIVERY FOR TREATMENT OF ONYCHOMYCOSIS” (The George Washington University, priority 2016, published 2018)

Columns and labels:
[1] = test system: onychomycosis; conditions: cited from earlier work; for side effects: onychomycosis treatment
[2] = diffusion cell test (Franz Diffusion Cell, spectrophotometry) of blue dye through nail with ultrasound; assay type: in vitro ADME, pig; conditions: 5 min sonication, 60 min total, n=6
Description: A second set of experiments was conducted utilizing a diffusion cell system 500, as set forth in FIG. 5 (hereinafter, the “diffusion cell test”). As described more fully below, a diffusion cell 502 having a receiving compartment 504 containing a stir bar 506 were positioned at the bottom of the system 500. A sampling port 508 projected from a side of the receiving compartment 504 to collect liquids contained therein. A nail adapter 510 fitted with a nail 512 was positioned above the diffusion cell 502. A lid adapter 514 was positioned above the nail 512. The lid adapter 514 contained a donor compartment 516, which held the blue dye, as well as a thermocouple 518 and a transducer 520. The parameters of the diffusion cell test were the same as set forth above with respect to Example 1, except in this example, spectrophotometry and a Franz Diffusion Cell were used to measure how much of the blue dye compound permeated all the way through the nail from a donor compartment (filled with the dye) to a receiver compartment, using dilution at different ultrasound parameters.
The diffusion cell (commercially available from PermeGear, Inc., Hellertown, Pa., USA) was fit with a custom-made nail adapter to avoid leakage of dye around the nail and a lid adapter so that 50 mL of dye and the transducer could easily fit above the nail adapter, as illustrated in FIG. 5. The nail adapter was made from plastic that screws together tightly and secures to the diffusion cell using small metal clamps. The lid adapter was made from a plastic beaker and secured onto the top of the nail adapter using epoxy. During the experimentation, the receiver compartment of the diffusion cell was filled with saline solution and a magnetic stirring bar which was spun at 450 RPM to ensure the compartment was fully mixed. The entire diffusion cell was placed in a water bath at 37° C. The donor compartment was then filled with 50 mL of the previously-described blue dye. Before being placed in the donor compartment, the blue dye was maintained at room temperature for at least 20 minutes. The transducer was placed 85 mm from the nail (as opposed to 45 mm from the nail in the luminosity experiment). The nail was then sonicated for five (5) minutes.
After sonication, the diffusion cell experiment continued for another 55 minutes to allow the dye to travel through the entirety of the nail. The Control nails were not treated with any ultrasound and were exposed to the dye solution for 60 minutes. […]
After the completion of the experiment, 2 mL of solution was collected from the receiving compartment of the diffusion cell and its absorption was measured with the spectrophotometer (commercially available as UVmini-1240 from Shimadzu Scientific Instruments of Columbia, Md., USA) using saline as a base. […]

Structure (SMILES): C=C1CCN([C@H](C)[C@](O)(Cn2cncn2)c2ccc(F)cc2F)CC1 [Efinaconazole]
- cure rate compared with Ciclopirox ([1]; topical, applied for up to ten (10) months): slightly better cure rate

Structure (SMILES): CN(C/C=C/C#CC(C)(C)C)Cc1cccc2ccccc12 [Terbinafine]
- side effects [1]: elevated levels of liver enzymes and hepatitis
- overall failure rate ([1]; orally prescribed): greater than 30%
- time to work ([1]; orally prescribed): > 6 months

Structure (SMILES): CCN(Cc1cccc(S(=O)(=O)[O-])c1)c1ccc(C(=C2C=CC(=[N+](CC)Cc3cccc(S(=O)(=O)[O-])c3)C=C2)c2ccccc2S(=O)(=O)[O-])cc1.[Na+].[Na+] [blue dye, FD&C Blue No. 1—Brilliant Blue FCF, E133]
- increase in nail permeability vs Control ([2]; 1 MHz): 70.3%
- increase in nail permeability vs Control ([2]; 400 kHz): 26.7%
- increase in nail permeability vs Control ([2]; 600 kHz): 19.5%
- increase in nail permeability vs Control ([2]; 800 kHz): 44.5%

Structure (SMILES): Cc1cc(C2CCCCC2)n(O)c(=O)c1 [ciclopirox]
- cure rate ([1]; nail polish form, after six (6) months of daily application): 36%
- side effects [1]: only non-serious, infrequently reported side effects
